# Publication PMC6009938, “The use of dimethylsulfoxide as a solvent in enzyme inhibition studies: the case of aldose reductase” (Journal of Enzyme Inhibition and Medicinal Chemistry, 2017)
# Experiments:
# Assay type in all cases: biochemical
# [1] = molecular target: T1, human recombinant AR (hAR) (Homo sapiens, UniProt P15121); experiment: Aldose reductase assay, L-idose reduction (NADPH oxidation at 340 nm); details: for Inhibition model / Ki / Ki′: substrate L-idose
# T1 construct: made in house
# Protocol: (§1) One unit of enzyme activity is the amount that catalyses the conversion of 1 µmol of substrate/min in the above assay conditions. These assay conditions were also adopted to assess the effectiveness of inhibitors when L-idose, trans-4-hydroxy-2,3-nonenal (HNE), or 3-glutathionyl-4-hydroxynonenal (GSHNE) was used as a substrate instead of GAL.
# (§2) The human recombinant AR (hAR) was expressed and purified as previously described. […] The purified enzyme was stored at −80 °C in a 10 mM sodium phosphate buffer pH 7.0 containing 2 mM DTT and 30% (w/v) glycerol. Before use, the enzyme was extensively dialysed against a 10 mM sodium phosphate buffer pH 7.0.
# [2] = molecular target: T1, human recombinant AR (hAR); experiment: Aldose reductase assay, HNE reduction (NADPH oxidation at 340 nm); details: for Inhibition model / Ki′: substrate HNE
# Protocol: (§3) The AR activity was determined at 37 °C as previously described, following the decrease in absorbance at 340 nm due to NADPH oxidation (ε 340 = 6.22 mM^−1·cm^−1) through a Biochrom Libra S60 spectrophotometer (Biochrom, Cambridge, United Kingdom). The standard assay mixture contained a 0.25 M sodium phosphate buffer pH 6.8, 0.18 mM NADPH, 0.4 M ammonium sulphate, 0.5 mM EDTA and 4.7 mM GAL. One unit of enzyme activity is the amount that catalyses the conversion of 1 µmol of substrate/min in the above assay conditions. These assay conditions were also adopted to assess the effectiveness of inhibitors when L-idose, trans-4-hydroxy-2,3-nonenal (HNE), or 3-glutathionyl-4-hydroxynonenal (GSHNE) was used as a substrate instead of GAL.
# as §2
# The protein concentration was determined according to Bradford[35], using BSA as a standard protein. HNE was prepared as previously described. GSHNE was prepared as previously described[37] by incubation of GSH and HNE, monitoring the time course of GSH consumption. The residual GSH was determined as previously described.
# [3] = molecular target: T1, human recombinant AR (hAR); experiment: Aldose reductase assay, GSHNE reduction; details: up to 100 mM in the assay mixture; different substrate concentrations
# Protocol: as §3
# The human recombinant AR (hAR) was expressed and purified as previously described. […] The specific activity of purified hAR was 5.3 U/mg. The purified enzyme was stored at −80 °C in a 10 mM sodium phosphate buffer pH 7.0 containing 2 mM DTT and 30% (w/v) glycerol. Before use, the enzyme was extensively dialysed against a 10 mM sodium phosphate buffer pH 7.0.
# The protein concentration was determined according to Bradford[35], using BSA as a standard protein. HNE was prepared as previously described. […] The residual GSH was determined as previously described.
# [4] = molecular target: T1, human recombinant AR (hAR); experiment: Aldose reductase assay, GAL reduction
# Protocol: as §1, §2
# [5] = DMSO 40 mM, apparent, ESI complex
# [6] = DMSO 100 mM, apparent, ESI complex
# [7] = DMSO 200 mM, apparent, ESI complex
# [8] = No DMSO, dissociation constant of ESI complex
SMILES,Inhibition model [1],Inhibition model [2],effect on the reduction of GAL catalysed by AR [4],"Ki′ [1, 5]","Ki′ [1, 6]","Ki′ [1, 7]","Ki′ [1, 8]","Ki′ [2, 5]","Ki′ [2, 6]","Ki′ [2, 7]","Ki′ [2, 8]",Inhibition model ([1]; listed as rutin),Inhibition model ([2]; listed as rutin),effect on enzyme activity with GSHNE as substrate [3],"Ki ([1]; DMSO 40 mM, apparent)","Ki ([1]; DMSO 100 mM, apparent)","Ki ([1]; DMSO 200 mM, apparent)",Ki ([1]; No DMSO),"inhibition of AR activity ([1]; 0.7% (v/v) (approximately 0.17 M), L-idose 0.4–4 mM)","inhibition of AR activity ([2]; 0.7% (v/v) (approximately 0.17 M), HNE 40–110 µM)"
"C[S+](C)[O-] [DMSO, dimethyl sulfoxide]",competitive inhibition,mixed type of inhibition,no effect,–,–,–,–,–,–,–,–,–,–,no effect of interference on the enzyme activity,–,–,–,–,–,–
"COc1ccc(CCC(=O)c2c(O)cc(O[C@@H]3O[C@H](CO)[C@@H](O)[C@H](O)[C@H]3O[C@@H]3O[C@@H](C)[C@H](O)[C@@H](O)[C@H]3O)cc2O)cc1O [NHDC, neohesperidin dihydrochalcone]",mixed inhibitors,uncompetitive inhibitors,–,286 ± 53 µM,230 ± 35 µM,283 ± 2 µM,292 ± 17 µM,134 ± 11 µM,150 ± 22 µM,199 ± 6 µM,122 ± 19 µM,–,–,–,114 ± 15 µM,125 ± 16 µM,194 ± 17 µM,93 ± 17 µM,–,–
CO [methanol],–,–,–,–,–,–,–,–,–,–,–,–,–,–,–,–,–,–,less than 5%,less than 5%

# The next lines start with results.
Inhibition model [1],Inhibition model [2],effect on the reduction of GAL catalysed by AR [4],"Ki′ [1, 5]","Ki′ [1, 6]","Ki′ [1, 7]","Ki′ [1, 8]","Ki′ [2, 5]","Ki′ [2, 6]","Ki′ [2, 7]","Ki′ [2, 8]",Inhibition model ([1]; listed as rutin),Inhibition model ([2]; listed as rutin),SMILES,effect on enzyme activity with GSHNE as substrate [3],"Ki ([1]; DMSO 40 mM, apparent)","Ki ([1]; DMSO 100 mM, apparent)","Ki ([1]; DMSO 200 mM, apparent)",Ki ([1]; No DMSO),"inhibition of AR activity ([1]; 0.7% (v/v) (approximately 0.17 M), L-idose 0.4–4 mM)","inhibition of AR activity ([2]; 0.7% (v/v) (approximately 0.17 M), HNE 40–110 µM)"
Mixed,Mixed,–,62.9 ± 2.3 µM,50.3 ± 4.8 µM,60.9 ± 2.1 µM,52.5 ± 3.8 µM,64.7 ± 1.4 µM,73.4 ± 7.5 µM,99.5 ± 7.3 µM,56.5 ± 4.5 µM,–,–,"O=C(CCc1ccc(O)cc1)c1c(O)cc(O)cc1O [Phloretin, phloretin]",–,–,–,–,–,–,–
Mixed,Uncompetitive,–,7.6 ± 1.2 µM,11.7 ± 0.5 µM,12.7 ± 2.0 µM,9.3 ± 1.1 µM,10.5 ± 2.0 µM,12.8 ± 1.9 µM,16.5 ± 1.9 µM,9.2 ± 0.9 µM,mixed inhibitors,uncompetitive inhibitors,"C[C@@H]1O[C@@H](OC[C@H]2O[C@@H](Oc3c(-c4ccc(O)c(O)c4)oc4cc(O)cc(O)c4c3=O)[C@H](O)[C@@H](O)[C@@H]2O)[C@H](O)[C@H](O)[C@H]1O [Rutin, rutin]",–,20.3 ± 1.1 µM,24.8 ± 3.8 µM,45.6 ± 5.5 µM,17.8 ± 3 µM,–,–
